Where “and” joins values, the source holds several entries; their conditions need not be identical. Equal values may be shown once.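 The compound was tested at five concentrations on cells cultured in 96-well plates, with a 48-hour exposure period. Abbreviation: GI50, concentration required for 50% inhibition of growth. TGI is the concentration that stops growth completely.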

Assay in all cases: NCI anticancer screen, dose series, 48 h
The subject of assay [1] is SNB-75 CNS.
Assay [2] has as its system NCI-H23 lung.
Assay [3] has as its system KM12 colon.
In assay [4] the test system is BT-549 breast.
For assay [5], the system named is MCF7 breast.
For assay [6], the system named is SF-295 CNS.
In assay [7] the test system is HS 578T breast.
Assay [8] has as its system COLO 205 colon.
Assay [9] deals with NCI-H226 lung.
Assay [10] relates to ACHN renal.

As for `CCN1CCN(c2cc(C(=O)Nc3cccc(Nc4ccc5c(OC)cccc5n4)c3)cc(C(F)(F)F)c2)CC1`, the GI50 in assay [1] was 1.05 µM; in [2], 3.41 µM; in assay [3], 1.71 µM; in assay [4], 3.78 µM; in assay [5], 0.679 µM; in assay [6], 0.803 µM. The GI50 in assay [7] is 3.61 µM; in assay [8] it was 0.654 µM; in [9], 2.85 µM; in [10], 1.21 µM. The TGI in assay [1] was 5.36 µM; in assay [2] it was 8.12 µM; in [3], 6.35 µM; in assay [4] it was 8.67 µM; in assay [5], 2.28 µM; in [6], 2.25 µM. Also, the TGI in assay [7] was 11.9 µM; in assay [8], 1.49 µM; in assay [9] it was 25.4 µM; in assay [10], 4.97 µM.
For the molecule `Cc1nn(C)c2ncnc(N/N=C/c3cccc(O)c3O)c12`, the GI50 in [1] is 0.548 µM; in assay [2], 0.774 µM; in assay [3], 0.392 µM; in assay [4] it was 0.602 µM; in assay [5] it was 0.594 µM; in assay [6] it was 2.73 µM. Moreover, the GI50 is 2.29 µM in assay [7], 1.11 µM in [8], 3.69 µM in [9] and 0.338 µM in assay [10]. In addition, the TGI in assay [1] is 6.8 µM; in [2], over 68.2 µM; in assay [3], over 100 µM; in assay [4], over 100 µM; in assay [5], over 100 µM; in assay [6], 49.9 µM. The TGI in [7] is over 100 µM; in assay [8], over 78.7 µM; in assay [9], over 49.2 µM; in assay [10], over 32.3 µM.
`COc1cc(S(=O)(=O)Nc2nc(-c3ccc(N4C(=O)C(C)SC4c4ccccc4O)cc3)cs2)ccc1Cl` (configuration not stated): the GI50 in assay [1] was 42.4 µM; in assay [2], 42.2 µM; in assay [3] it was 51.1 µM; in [4], 32 µM; in assay [5], 49 µM; in assay [6] it was 31.8 µM. Moreover, the GI50 in assay [7] is 43.1 µM; in assay [8], 40.6 µM; in [9], 20.3 µM; in assay [10], 42.7 µM. The TGI in [1], in [2], in assay [3], in [4], in assay [5] and in assay [6] was over 100 µM throughout. Besides, the TGI in assay [7], in assay [8], in assay [9] and in assay [10] was over 100 µM each time.
As to `COC1=C(OC)C(=O)C(C/C=C(\C)CC/C=C(\C)CC/C=C(\C)CC/C=C(\C)CC/C=C(\C)CC/C=C(\C)CC/C=C(\C)CC/C=C(\C)CC/C=C(\C)CCC=C(C)C)=C(C)C1=O`, the GI50 in assay [1], in assay [2], in assay [3], in assay [4], in assay [5] and in assay [6] was over 100 µM in each case. The GI50 in assay [7], in assay [8], in assay [9] and in assay [10] was over 100 µM in each case. Also, the TGI in [1], in assay [2], in [3], in [4], in assay [5] and in assay [6] was over 100 µM throughout. Also, the TGI in assay [7], in assay [8], in assay [9] and in assay [10] was over 100 µM throughout.
With `CN1CCN(CCCOc2ccc3nc(Nc4ccc(F)c(F)c4)ccc3c2)CC1`, the GI50 in assay [1] is 1.35 µM; in assay [2], 3.15 µM; in [3], 1.89 µM; in assay [4], 2.34 µM; in assay [5], 1.66 µM; in assay [6] it was 1.61 µM. The GI50 in assay [7] was 1.82 µM; in assay [8], 1.72 µM; in assay [9] it was 10.8 µM; in assay [10], 2.24 µM. The TGI was 4.05 µM in assay [1]; 13.2 µM in assay [2]; 4.16 µM in assay [3]; 9.86 µM in [4]; 3.53 µM in [5]; 3.65 µM in [6]. The TGI in [7] was determined as 5.43 µM; in assay [8], 3.69 µM; in [9], 29.9 µM; in assay [10], 5.6 µM.
Consider `COc1cc(/C=C/C(=O)CC(=O)/C=C/c2cc(OC)c(O)c(OC)c2)cc(OC)c1O`, for which the TGI was 61.4 µM in assay [1]; 25 µM and 35.7 µM in assay [2]; 15.4 µM and 31.1 µM in assay [3]; 25 µM and 34.4 µM in [4]; 25 µM and > 100 µM in assay [5]; 25 µM and > 100 µM in assay [6]. The TGI in assay [7] is 18 µM and 53.8 µM; in [8], 25 µM and 40.2 µM; in [9], 25 µM and > 100 µM; in assay [10] it was 25 µM and > 100 µM. Further, the GI50 in [2] is 12.7 µM; in assay [3], 13.5 µM; in assay [4] it was 13.4 µM; in assay [5] it was 19.6 µM; in [6], 32.3 µM; in assay [7] it was 5.73 µM. Also, the GI50 in [8] is 19.3 µM; in assay [9], 53.6 µM; in assay [10], 42.2 µM.
On to `CC1=C(CO)C(=O)O[C@@H]([C@@H](C)[C@H]2CC[C@H]3[C@@H]4C[C@H]5O[C@]56[C@@H](O)C=CC(=O)[C@]6(C)[C@H]4CC[C@]23C)C1`, for which the TGI in [1] worked out at 3.25 µM; in [2], 0.81 µM; in assay [3], 1.82 µM; in assay [4], 2.15 µM; in assay [5], 2.43 µM; in [6], 3 µM. Further, the TGI in assay [7] was over 100 µM; in assay [8], 0.81 µM; in assay [9] it was 2.86 µM; in [10], 2.02 µM. The GI50 is 0.79 µM in [4], 0.345 µM in assay [5] and 0.402 µM in assay [7].

(Values after PubChem BioAssay (NCI).)
